Key:
vaginal mucosa = experiment: Nonoxynol-9-induced irritation of vaginal mucosa in a rabbit model; conditions: gel-based lubricant containing 9% nonoxynol-9, rabbits
Description: This animal model was used to evaluate the anti-irritant efficacy of various zinc salt compositions in vivo.
Two ml of the zinc salt lubricant compositions indicated in Table 3 was instilled into the vagina of each rabbit daily for five consecutive days. At the end of this period, a veterinary pathologist evaluated each animal both macroscopically and microhistopathologically and scored the degree of vaginal irritation that was present. Irritation was quantified as follows: 0=No irritation, 1-4=Minimal Irritant, 5-8=Mild Irritation, 9-11=Moderate Irritation, 12-16=Severe Irritation.

[1] = cited from earlier work

Substance | irritation of the vaginal mucosa (vaginal mucosa) | water solubility (in words) [1]
nonoxynol-9 | mild to moderate irritation | –
zinc picolinate | – | moderately water soluble
